Results taken from patent US20210275698A1, “COMPOUNDS AND COMPOSITIONS FOR TARGETING MACROPHAGES AND OTHER MANNOSE-BINDING C-TYPE LECTIN RECEPTOR HIGH EXPRESSING CELLS AND METHODS OF TREATING AND DIAGNOSIS USING SAME” (priority 2015, published 2021).

Columns and labels:
[1] = system: luciferase-expressing M. tuberculosis H37Rv strain (M.tb-Lux); test: Anti-bacterial activity against M.tb in human macrophages (luminescence); format: cell-based; conditions: drug equivalency; up to 72 h
[2] = system: monocyte-derived CD206+ macrophages; test: CD206 targeting assay: uptake, killing and apoptosis of monocyte-derived CD206+ macrophages; format: cell-based

NNC(=O)c1ccncc1 [INH, isoniazid]
lowest concentration at which activity against M.tb was maintained [1]: 0.0312 µM

COc1cccc2c1C(=O)c1c(O)c3c(c(O)c1C2=O)C[C@@](O)(C(=O)CO)C[C@@H]3O[C@H]1C[C@H](N)[C@H](O)[C@H](C)O1 [Docorubicin, doxorubicin]
killing / toxicity to CD206 expressing macrophages (Annexin levels) ([2]; FIG. 17): no toxicity | apoptosis induction (Annexin-V expression on MOs and in tumor tissue) ([2]; overnight): less effect
